Data from patent publication US12304905B2, “Pharmaceutical salts of benzothiazol compounds, polymorphs and methods for preparation thereof” (priority 2019, dated 2025).

Experiments:
Assay type in all cases: physicochemical
[1] = Solubility tests of mono- and di-hydrochloride in bio-relevant media by HPLC; settings: for solubility at 17 h: 37 °C, thermodynamic from solid; for pH: after shaking 17 hrs at 37° C.
Procedure: Solubilities of mono-hydrochloride and di-hydrochloride salt forms in biorelevant media were tested at 37° C. Details of procedures were listed as below: About 15 mg obtained salts were weighed in 2 mL vials, respectively. Then 1.0 mL bio-relevant media (SGF, FaSSIF and FeSSIF) were added into the vials. All the vials were placed on the thermo-mixer and kept at 37° C. (700 r/min). After shaking at 37° C. for 17 hrs, clear solutions obtained by centrifugation were analyzed by HPLC after being diluted by ACN/water (1v/1v) for 10-50 times. And pH value of all systems were measured.

[2] = Dry grinding and wet granulation, physical stability in the milling process
Procedure: Dry grinding and wet granulation were carried out to test physical stability of (1S,2S)-2-fluoro-N-(6-(4-methylpyridin-3-yl)benzo[d]thiazol-2-yl)cyclopropane-1-carboxamide mono-hydrochloride in the milling process.
(§1) For dry grinding experiment, about 50 mg of (1S,2S)-2-fluoro-N-(6-(4-methylpyridin-3-yl)benzo[d]thiazol-2-yl)cyclopropane-1-carboxamide mono-hydrochloride was added into mortar and grinded by pestle for about 5 mins. Residual solids were then characterized by XRPD.
as §1, with “wet granulation” for “dry grinding”, “and then several drops of solvent EtOH were added until the solids were fully wetted. Wet solids were” for “and”, “mins manually and residual” for “mins. Residual”

[3] = Polymorph screening study of mono-hydrochloride (slurry, heating-cooling, slow evaporation, anti-solvent); settings: slow evaporation and anti-solvent methods, starting from Pattern I
Procedure: About 50 mg of (1S,2S)-2-fluoro-N-(6-(4-methylpyridin-3-yl)benzo[d]thiazol-2-yl)cyclopropane-1-carboxamide mono-hydrochloride was suspended into 1.0 mL selected pure or binary solvents in 2.0 mL glass vials. The suspensions were placed on the thermo-mixer with the speed of 700 r/m in at 25° C. and 50° C. After 4 days, slurries and suspensions were centrifuged (8,000 r/m in, 5 mins) and residual solids were dried in the vacuum oven at 35° C. for 4 hrs.
About 50 mg of (1S,2S)-2-fluoro-N-(6-(4-methylpyridin-3-yl)benzo[d]thiazol-2-yl)cyclopropane-1-carboxamide mono-hydrochloride was suspended into 1.0 mL selected pure or binary solvents in 2.0 mL glass vials at 50° C. stirring with the speed of 500 r/min. Then the suspensions were filtered through 0.45 μm filters into clean 2.0 mL glass vials and placed on the hot-plate stirring with 500 r/m in at 50° C. After stirring at 50° C. for 1.5 hrs, the system was cooled to 25° C. After stirring at 25° C. for 16 hrs, some solids came out from MeOH, EtOH/H2O (5/1, v/v) and acetone/H2O (5/1, v/v) systems, while very few solids came out from EtOH system. Then MeOH, EtOH/H2O (5/1, v/v) and acetone/H2O (5/1, v/v) systems were centrifuged at 10000 r/min for 5 mins and residual solids were dried in the vacuum oven at 35° C. for 3 hrs. Obtained dry solids were then characterized by XRPD. […]

[4] = Solubility of mono-hydrochloride in solvents; settings: in MeOH, DMF, DMSO and water

solubility at 17 h ([1]; pH 1.88, simulated gastric fluid): > 13900 µg/mL | solubility at 17 h ([1]; pH 5.07, fessif): 130 µg/mL | solubility at 17 h ([1]; pH 6.62, fassif): 7840 µg/mL | pH ([1]; FaSSIF (pH = 6.62)): 2.01 | pH ([1]; FeSSIF (pH = 5.07)): 3.83 | pH ([1]; SGF (pH = 1.88)): 1.89 | crystallinity of residual solids (XRPD) ([2]; after dry grinding): decreased | crystalline form (XRPD) ([2]; after dry grinding or wet granulation process): not changed | XRPD pattern in polymorph screening [3]: No new XRPD pattern was found | solubility [4]: relatively high solubility
SMILES: Cc1ccncc1-c1ccc2nc(NC(=O)[C@@H]3C[C@@H]3F)sc2c1.Cl [Mono-hydrochloride, (1S,2S)-2-fluoro-N-(6-(4-methylpyridin-3-yl)benzo[d]thiazol-2-yl)cyclopropane-1-carboxamide mono-hydrochloride]
